The values below come from US20050260290A1, “Botanical anti-inflammatory compositions and methods” (RUTGERS, THE STATE UNIVERSITY OF NEW JERSEY, priority 2004, published 2005).

Molecules are shown by their SMILES.

For experiment [1], the system named is carrageenan hind paw edema. Description: rat hind paw edema assay (Example 3). As to conditions: 150 mg/kg; 3 h after carrageenan. The experiment is classed as in vivo, Long-Evans-derived rats. As to the method:
Hind paw edema models have been extensively described [see, for example, […] et al. (eds.), Inflammation Protocols, pp. 115-122 (2003)] and have been accepted as in vivo models of human inflammation. […] Aspirin was administered to another group of three Long-Evans rats at 150 mg/kg dose as a positive control reference compound. The severity of the hind paw edema (i.e., the hind paw volume) was recorded 3 hours after carrageenan administration using a plethysmometer (Ugo Basile, Italy). The hind paw volume measurements correspond to the amount of induced swelling, and therefore a reduction in the swelling corresponds to a reduction in inflammation. The anti-inflammatory activity of the Aframomum melegueta extract products can be expressed as a percentage of edema reduction (relative to the negative control (i.e., full edema)).

Experiment [2] relates to acetic acid-induced writhing. In words: acetic acid-induced writhing assay. The experiment is classed as in vivo, mice. Conditions: 100 mg/kg. As to the method: This writhing assay has been previously described [Inoue et al., Arzneimittelforschung, 41(3):235-239 (1991).] […] An aqueous solution comprising 2 vol. % Tween 80 was administered as a negative control to another group of three mice. Aspirin was administered at 100 mg/kg as a positive control to a fourth group of three mice. The number of writhings per animal group was observed during the period beginning at about five minutes after acetic acid challenge and ending at about ten minutes after acetic acid challenge. The average number of writhings per animal group is an indication of pain, e.g., inflammation-induced pain, and therefore a reduction in the number of writhings per unit time per animal group corresponds to a reduction in inflammation. The reduction in number of writhings can be expressed relative to the negative control value as a percentage of inflammation inhibition.
Background: An intraperitoneal irritant provokes the stretching counted in writhing tests.

Experiment [3] has as its system carrageenan hind paw edema. Description: rat hind paw edema assay, two studies (Example 4). The experiment is classed as in vivo, Long-Evans-derived rats. Conditions: 1 h after carrageenan (positive control). As to the method: Two studies were conducted. […] The anti-inflammatory extract product was administered to the groups at different dose protocols. Comparisons can be made relative to the negative and positive control animal groups. Groups 2 and 4 of the first and second study, and Groups 2 and 5 of the second study, received a single dose of the extract product one hour after hind paw injection of carrageenan (0.1 ml of a suspension of 1 wt. % carrageenan in […], intraplantar). Group 3 of both studies received a first dose of the extract product one hour before, and a second dose of the extract product one hour after, hind paw injection of carrageenan. […] Group 4 of the second study received a dose of the extract product one hour before administration of carrageenan. Group 5 of the first study and Group 6 of the second study received indomethacin, a commercially available nonsteroidal anti-inflammatory drug, one hour after hind paw injection of carrageenan. Indomethacin was administered as a positive control reference compound, and Groups 5 and 6 (of the first and second studies, respectively) represent positive control groups. The severity of the hind paw edema (i.e., hind paw volume) was recorded at 3 hours after, 5 hours after, and 24 hours after carrageenan administration using a plethysmometer (Ugo Basile, Italy). The hind paw volume measurements after carrageenan administration correspond to the amount of induced swelling, and a reduction in the percentage of increase in hind paw volume relative to the percentage of increase observed in hind paw volume for the negative control group corresponds to a reduction in inflammation. For example, the hind paw volume of the negative control group of the first study (Group 1) increased by about 45% whereas the hind paw volume of Group 2 (which received an Aframomum melegueta extract product) increased by only 25%.

A further experiment has as its target T1, COX-2 enzyme (Ovis aries, UniProt P79208).
T1 sequence (P79208 17-603): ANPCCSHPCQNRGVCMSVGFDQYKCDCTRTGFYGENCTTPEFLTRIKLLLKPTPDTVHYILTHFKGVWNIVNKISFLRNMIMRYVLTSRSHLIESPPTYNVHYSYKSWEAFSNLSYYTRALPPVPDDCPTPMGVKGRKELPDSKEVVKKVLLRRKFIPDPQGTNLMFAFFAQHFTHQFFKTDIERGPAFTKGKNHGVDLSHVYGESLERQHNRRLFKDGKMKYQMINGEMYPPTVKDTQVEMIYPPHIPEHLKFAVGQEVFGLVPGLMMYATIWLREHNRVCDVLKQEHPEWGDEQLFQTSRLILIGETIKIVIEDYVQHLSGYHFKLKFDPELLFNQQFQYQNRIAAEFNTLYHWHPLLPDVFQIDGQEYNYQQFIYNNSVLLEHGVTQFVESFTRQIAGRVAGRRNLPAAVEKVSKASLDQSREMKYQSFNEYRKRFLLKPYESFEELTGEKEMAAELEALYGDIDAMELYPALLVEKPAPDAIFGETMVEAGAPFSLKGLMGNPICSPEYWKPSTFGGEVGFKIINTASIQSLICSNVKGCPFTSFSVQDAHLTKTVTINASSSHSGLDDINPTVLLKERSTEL
Description: colorimetric COX (ovine) inhibitor screening assay, COX-2 inhibition. Conditions: peaks of subfractionated paradol fraction (Method C).

Setting [4] is: first study Group 5: 15 mg/kg, 3 h.
Setting [5] is: first study Group 5: 15 mg/kg, 5 h.
[6] abbreviates: first study Group 5: 15 mg/kg, 24 h.
Where [7] appears, read: second study Group 6: 15 mg/kg, 3 h.
The mark [8] stands for this setting: second study Group 6: 15 mg/kg, 5 h.
The mark [9] stands for this setting: second study Group 6: 15 mg/kg, 24 h.

Description for COX-2 enzyme: The anti-inflammatory extract product of Example 1 was suspended in 95 vol. % ethanol at a concentration of 1 milligram (mg) extract product per milliliter (mL) ethanol to form an A. melegueta solution. The activity of the solution was tested with a colorimetric COX (ovine) inhibitor screening assay (catalogue no. 760111, Cayman Chemical, Ann Arbor, Mich.). The screening assay measures the peroxidase activity of cyclooxygenases by monitoring the appearance of oxidized N,N,N′N′-tetramethyl-p-phenylenediamine (TMPD) at 590 nm as previously described [Kulmacz, Prostaglandins, 25:531-540 (1983)]. A (relatively) higher TMPD concentration corresponds to a greater absorbance at 590 nm, a greater peroxidase activity, and a greater COX-2 activity (corresponding to the degree of inhibition of COX-2 activity).
Three milliliters (mL) of assay buffer concentrate (as provided) was diluted with 27 mL HPLC-grade water to provide a final assay buffer (0.1M Tris-HCl, pH 8). This buffer assay solution was used to prepare heme and COX-2 enzyme assay solutions. […]
10 μl of 95 vol. % ethanol was then added to the background and negative control wells. […] The absorbance for each well was measured at 590 nm using a plate reader.
The inhibitory activity was calculated from these absorbance readings. […]

For `CC(=O)Oc1ccccc1C(=O)O` [aspirin], the “reduction of hind paw edema” value in experiment [1] is on record as “about 43%”. Further, the “percentage of inflammation inhibition (writhing)” value in experiment [2] came out at 80%. Further, the “average number of writhings per animal group” value in experiment [2] (5-10 min after challenge) stood at 3.
As for `COc1ccc2c(c1)c(CC(=O)O)c(C)n2C(=O)c1ccc(Cl)cc1` [Indomethacin, indomethacin], the “Increase in rat hind paw volume after carrageenan administration” value turned out to be 44% in experiment [3] (setting [4]); 29% in experiment [3] (setting [5]); 12% in experiment [3] (setting [6]); 44% in experiment [3] (setting [7]); 29% in experiment [3] (setting [8]); 12% in experiment [3] (setting [9]). The “rat hind paw volume after carrageenan administration” value came out at 1.51 ± 0.05 mL in experiment [3] (setting [4]); 1.35 ± 0.08 mL in experiment [3] (setting [5]); 1.18 ± 0.1 mL in experiment [3] (setting [6]); 1.51 ± 0.05 mL in experiment [3] (setting [7]); 1.35 ± 0.08 mL in experiment [3] (setting [8]); 1.18 ± 0.1 mL in experiment [3] (setting [9]).
Take `CCCCCCCC(=O)CCc1ccc(O)c(OC)c1` (single isomer, unassigned) [second peak, [6]-paradol]: the inhibition at 1000 µg/mL on COX-2 enzyme (read-out: COX-2 inhibitory activity, 1 mg/mL) amounted to 83%.
As to `CCCCCCCC(=O)CCc1ccc(O)c(OC)c1` (single isomer, unassigned) [first peak, [6]-paradol], the COX-2 inhibitory activity at COX-2 enzyme (1 mg/mL) came to 74%.
